# From patent publication US20160031937A1, “NEURAL REGENERATION PEPTIDES AND USES THEREFOR” (CURONZ HOLDINGS COMPANY LIMITED, priority 2013, published 2016)
# Square brackets hold non-standard residues; d marks the D form. Ends that are not written are not given here. Aib = CC(C)(N)C(=O)O
# Assays:
# CXCR4 gene expression = CXCR4 gene expression by real time PCR; format: cell-based, human; conditions: W9-hESCs
# Method: The second experiment was done to assess the capability of NRP2945 for regulating the gene expression of its target receptor subunit CXCR4. For this purpose, W9-hESCs were either exposed to 10 minute, 30 minute or 60 minute of either 10 pM or 100 pM of NRP2945 under normoxic conditions; or in combination with 4 hours of OGD injury at concentrations of either 10 pM or 100 pM of NRP2945. At the end of the 4 hours, mRNA was extracted from all the cell samples, cDNA synthesis was performed using the SuperSript® cDNA kit (Invitrogen) followed by real time PCR. The efficacy of the real time PCR was 99% when using the following primers for the CXCR4 product propagation: […]
# according to the publication: Nagase, Miyamasu et al. (2000) - J Immunol 164: 5935-5943
# [1] = test system: NRP 13q13.2 gene expression; assay: NRP 13q13.2 gene expression by semi-quantitative RT-PCR in NTERA-2 cells; format: cell-based, human
# Method: mRNA was extracted according to standard procedures (TRIzole® from Invitrogen or RNeasy Mini from Qiagen). The mRNA fraction was subjected to DNase I treatment using DNaseI incubation mixture. For this treatment, 10 μl DNaseI stock plus 70 μl buffer was added to mRNA preparation and incubated for 5 minutes at room temperature. cDNA synthesis was then carried out according to standard procedures (SuperScript® III Reverse Transcriptase from Invitrogen).
# The optimized RT-PCR strategy used an intron-spanning forward primer with high GC-content and TM (78° C.) and a reverse primer with a lower TM (60° C.). These primers are shown in FIG. 10, and also further below. The mRNA was treated with DNase I before starting the synthesis of cDNA, as the intron-spanning primer only bridged an intron of 9 nucleic acids.
# The expected RT-PCR product was 221 by in length. PCR conditions included annealing at 58° C. and 36 total cycles. Samples were incubated at 94° C. for 5 minutes as the start of the GeneAmp® cycler operation. The 36 cycles included the sequence: 94° C. for 30 seconds; 58° C. for 30 seconds; 72° C. for 30 seconds; followed by cooling to 15° C. at the end of the PCR.
# The PCR-reaction included: 10× buffer (2.50 μl), 50 mM MgCl2 (0.75 μl), 10 mM dNTPs (0.50 μl), Primer 1 (0.50 μl), Primer 2 (0.50 μl), Taq Polymerase (0.10 μl), cDNA (1.00 μl ), H2O (19.15 μl), to yield a total volume of 25.00 μl. Taq DNA Polymerase was sourced from Invitrogen (Platinum® Taq Polymerase).
# NTERA-2 (ATCC No. CRL-1973) is a human carcinoma derived pluripotent cell line that has only single copies of chromosome 1, 10, 11 and 13. This was the impetus for using 36 cycles of PCR for detection of NRP expression.
# Undifferentiated NTERA-2 cells were obtained. Frozen stocks were prepared with a maximum of 2 passages. NRP expression could be assessed in cells having up to 4-5 passages. The cell culture medium included ATCC-formulated DMEM plus 10% FCS. The medium was exchanged every 2-3 days. For passaging, cells were dislodges by scraping and then transferred into 75cm^2 flasks. An initial seeding included 5 million cells in 12-15 ml of cell medium per flask.
# Subcultivation was performed for gene expression tests. For subcultivation, cells were dislodged by scraping and then gathered by centrifugation at 1500 rpm for 7 minutes, at 4° C. The media was discarded and the cells were resuspended in 16 ml fresh DMEM/10%FBS. The expected yield was 12-15 million cells in the flask. Thus, the resuspended cells were at a concentration of about 1 million cells per ml.
# For passage 3, the remaining 4 ml of cell suspension plus 8 ml culture medium was transferred into new T75 cultivation flask.
# […] All conditions were applied for 15 minutes, 30 minutes, and 60 minutes.
# mRNA was then collected. Cells were washed once at the end of the treatment with subsequent cell scraping. Cells were passed through 25-gauge needle into a 15 ml falcon tube. Falcon tube cell content was aspirated, washed once with DMEM, followed by trypsinization. […]
# Centrifugation was carried out for 7 minutes at 1500 rpm, at 4° C. The pellets were then ready to be stored either at -80° C. or in liquid nitrogen until RNA extraction.
# For RNA extraction, thawed cell pellets were prepared according to manufacturer's instructions (RNeasy Mini from Qiagen). RNA concentration was determined by NanoDropTM. […] For synthesis of sufficient quantities of cDNA, the RNA concentration in the cell samples was ensured to be between 10-20 ng/μl. […]
# neuronal stem cells = assay: Neuronal chemoattraction; format: cell-based
# [2] = test system: endogenous NRP gene expression; assay: Endogenous NRP gene expression in human embryonic W9 stem cells; format: cell-based; conditions: 100 fM NRP2945
# [3] = normoxic NTERA-2 cells, 1 pM NRP2945
substance,measurement,setting,value
"Gly Arg Arg Ala Ala Pro Gly Arg Aib Gly Gly (GRRAAPGR[Aib]GG) [NRP2945, synthetic 11-mer peptidomimetic optimized for stability and pharmacokinetics]",CXCR4 gene expression in the presence of OGD,"CXCR4 gene expression; 4 hours of OGD, 10 pM or 100 pM NRP2945",unchanged
same,expression of CXCR4 gene,"CXCR4 gene expression; normoxic conditions, 10 pM or 100 pM NRP2945, relative to normoxic control, normalised to β actin",decreased significantly after only 10 minutes
same,time of peak in CXCR4 gene down-regulation,"CXCR4 gene expression; normoxic, maintained for at least 1 hour",30 min
same,extent of CXCR4 down-regulation,CXCR4 gene expression; within 30 minutes,constitutively expressed levels seen in a human tissue cDNA library
same,time to stimulated endogenous NRP gene expression after administration,"[1]; NTERA-2 cells, 100 pM NRP2945",5 to 10 min
same,NRP 13q13.2 gene expression during oxidative stress,"[1]; NTERA-2 cells, 0.5 mM 3-NP with simultaneous 1 pM NRP2945",up-regulated after 15 minutes and stays elevated during the period of analysis
same,time frame of exposure for up-regulation of endogenous NRP gene expression (13q13.2),"[1]; human NTERA-2 cells, autocrine, unpublished results",≤ 10 min
same,gene expression of NRP 13q13.2,[1]; [3],highly elevated after only 15 minutes
same,time of peak NRP 13q13.2 gene expression after peptide contact,[1]; [3],30 min
same,neuronal chemoattractive potency relative to SDF-1,neuronal stem cells; NRP2945 versus SDF-1,more than 1 million
same,EC50 values for chemoattraction,neuronal stem cells; preliminary experiments,lower femtomolar range
same,time to stimulated endogenous NRP gene expression after administration,[2],5 to 10 min
